According to US20250276008A1, “USE OF LITHIUM-CONTAINING COMPOUNDS IN TREATMENT OF TUMORS” (Institute of Basic Medical Sciences Chinese Academy of …, priority 2023, published 2025):

Experiments:
[1] = test system: CD8^+ T cells; experiment: Cytosolic Ca2+ / lysosomal Ca2+ release in CD8+ T cells; format: cell-based, mouse; conditions: for increase in cytosolic Ca^2+ concentrations in CD8^+ T cells induced by LC: blocking calcium release from endoplasmic reticulum or mitochondria; for Ca^2+ release in lactic acid-treated CD8^+ T cells: increasing lysosomal pH value
Excerpt: Next, we investigated the molecular mechanism by which LC activated TFEB in CD8^+ T cells. It has been reported (Nat Cell Biol. 2015 March;17(3):288-99) that in addition to being able to degrade exogenous or endogenous biomacromolecules, lysosomes, like endoplasmic reticulum and mitochondria, are also storage sites for Ca^2+ and can initiate the transduction of calcium-related downstream signals.
(§1) In order to better track the flow of H^+, ^2D (deuterium)-acetic acid (DAC) or ^2D-sulfuric acid (D2SO4) was added to the culture medium of CD8^+ T cells. […] The K-loop of V-ATPase is located in the hydrophobic lipid bilayer and is essential for the pumping of cytosolic H^+ into the lysosomal lumen. Li^+ has been reported to bind to the K-loop of V-ATPase in Enterococcus hirde and induce deprotonation of the Glul39 residue (J. Am. Chem. Soc. 2011.133. 2860-2863).

[2] = test system: MCT1; experiment: Localization of MCT1 to mitochondria (Western blot of isolated T cell mitochondria); format: cell-based, mouse; conditions: for expression / localization of MCT1 in mitochondria: Western blot of isolated T cell mitochondria
Excerpt: The inventor further explored the molecular mechanism by which LC led to the shunting of lactic acid to mitochondria. Entry of lactic acid into mitochondria requires the localization of MCT1 to the inner mitochondrial membrane IMM (Redox Biol. 2020 August;35:101454). […] MCT1 is generally recognized as a secreted protein with an endoplasmic reticulum-targeting sequence that enters the endoplasmic reticulum and localizes to the plasma membrane. We hypothesized that LC could induce MCT1 variants with mitochondrial targeting sequences (MTSs). However, no MCT1 variant was found in LC-treated T cells by sequencing analysis, and only one transcript of MCT1 was found after alignment analysis on NCBI. A MTS was found at the N-terminus of MCT-1protein by protein sequence analysis, which was present downstream of the endoplasmic reticulum targeting sequence, forming a double-peak chimeric sequence. This double-peak sequence may direct MCT-1 to target the endoplasmic reticulum or mitochondria, and may be regulated by serine/threonine phosphorylation of PKA or PKC (Avadhani, N. G. 2011. FEBS J 278, 4218-4229).

[3] = test system: lysosomal V-ATPase; experiment: Lysosomal pH, Atp6v0c, H+ (deuterium) flow and Li+ accumulation in CD8+ T cells; format: cell-based, mouse
Description: as §1

[4] = test system: CD8^+ T cells; experiment: Entry and subcellular distribution of lactate and hydrogen ions in CD8+ T cells (lysosensor, LC-MS/MS); format: cell-based, mouse
Description: CD8^+ T cells were treated with exogenous hydrochloric acid (HCl) or sodium lactate (NaLa) as controls, and the entry of lactate and hydrogen ions into the cells was detected.
When exogenous lactic acid enters the cell, excess hydrogen ions are further transported to acidic organelles, such as lysosomes, in order to maintain the stability of the cytoplasmic pH values.

[5] = test system: V-ATPase; experiment: V0C expression, V-ATPase activity and lysosomal pH in lactic acid-treated CD8+ T cells; format: cell-based, mouse
Description: In order to further elucidate the mechanism by which histone lactylation modification regulates T cell function, the downstream target genes regulated by histone lactylation modification were explored by using ChIP-Seq experiments, and the enrichment scores of genes corresponding to histone lactylation sites were calculated. […] ATP6V0C gene encodes the V0 subunit C protein in V-ATPase that plays a key role in pumping H^+, which is responsible for pumping cytosolic H^+ into the lysosomal lumen and thus maintaining the low pH value of lysosomes. […] Therefore, exogenous lactic acid results in lactylation of histones and thus up-regulating ATP6V0C expression and activity, thereby shunting cytosolic H^+ into lysosomes in response to cytosolic acid stress, but lysosomal acidification may inhibit the activity of CD8^+ T cells.

[6] = test system: CD8^+ T cells; experiment: Exogenous lactic acid on CD3/CD28-activated CD8+ T cells (flow cytometry, qPCR, ELISA, CTV); format: cell-based, C57BL/6J mouse; conditions: exogenous lactic acid at different concentrations, dose-dependent
Excerpt: In order to further explore the effect of lactic acid on CD8^+ T cells, we used C57BL/6J mouse spleen-derived CD8^+ T cells to be activated by CD3/CD28 magnetic beads and stimulated by exogenous lactic acid at different concentrations.

[7] = test system: CD8^+ T cells; experiment: Lactyl-CoA (LC-MS/MS) and histone lactylation (Western blot, anti-pan-Kla) in CD8+ T cells; format: cell-based, mouse; conditions: after treating CD8+ T cells with exogenous lactic acid
Excerpt: We further investigated the effect of lactic acid distributed in the nucleus on the function of CD8^+ T cells. In 2019, Zhao […] team discovered a new type of histone epigenetic modification, lactylation modification (Kla), which can regulate the phenotype and function of macrophages (Nature. 2019 October: 574 (7779): 575-580). On this basis, we hypothesized that lactic acid entering the nucleus would lead to lactylation modification of histones, thereby regulating the function of CD8^+ T cells.

O=C1CSC(c2ccccc2Cl)c2cc(Cl)ccc2N1 (stereo not drawn) [CGP37157]
increase in cytosolic Ca^2+ concentrations in CD8^+ T cells induced by LC [1]: did not affect

CCCCCCCCCCCCCC(=O)O[C@@H]1[C@@H](C)[C@@]2(O)[C@@H](C=C(CO)C[C@]3(O)C(=O)C(C)=C[C@@H]23)[C@@H]2C(C)(C)[C@]12OC(C)=O [PMA]
expression / localization of MCT1 in mitochondria [2]: significantly increased

CN1CCN(c2nc(C3=C(c4c[nH]c5ccccc45)C(=O)NC3=O)c3ccccc3n2)CC1 [Sotrastaurin]
localization of MCT1 to mitochondria induced by LC ([2]; kinase inhibitors added, results not shown): almost completely blocked

CO/C1=C\C(C)=C\[C@@H](C)[C@@H](O)[C@@H](C)C/C(C)=C/C=C/[C@H](OC)[C@@H]([C@@H](C)[C@@H](O)[C@H](C)[C@@]2(O)C[C@@H](O)[C@H](C)[C@@H](C(C)C)O2)OC1=O [bafilomycin A1]
entry of Li^+ into lysosomes ([3]; LC-treated CD8+ T cells): blocked
Ca^2+ release ([1]; LC-treated CD8+ T cells with bafilomycin A1): reduced
Ca^2+ release in lactic acid-treated CD8^+ T cells [1]: promote

CCN(CC)CCCC(C)Nc1ccnc2cc(Cl)ccc12 (stereo not drawn) [chloroquine]
Ca^2+ release in lactic acid-treated CD8^+ T cells [1]: promote

CC(O)C(=O)O (stereo not drawn) [lactic acid]
lysosome acidification (lysosensor staining) [4]: rapidly acidify lysosomes
entry of lactate and hydrogen ions into the cells ([4]; HCl or sodium lactate as controls): simultaneously transported into the cells
activity of V-ATPase ([5]; CD8+ T cells): significantly up-regulated
protein expression of V0C ([5]; CD8+ T cells): significantly up-regulated
lysosomal pH value ([5]; exogenous lactic acid, decreasing from 5.4): 4.4
expression of lysosome-related gene Atp6v0c [3]: significantly up-regulated
lactylation of the Atp6v0c gene (ChIP-seq) [3]: high level of lactylation
expression / localization of MCT1 in mitochondria [2]: significantly reduced
activation of CD8^+ T cells (CD25 expression; gene and protein expression of IL-2, IFN-γ, TNF-α) ([6]; CD3/CD28 magnetic beads): significantly inhibited
apoptosis of CD8^+ T cells [6]: significantly promoted
proliferation of CD8^+ T cells (CTV proliferation assay) [6]: significantly inhibited
content of lactyl-CoA (LC-MS/MS) [7]: significantly increased
level of histone lactylation (Western blotting, anti-pan-Kla antibody) [7]: significantly increased

Ryanodine
increase in cytosolic Ca^2+ concentrations in CD8^+ T cells induced by LC [1]: did not affect
